{
  "source": "patent US20230322767A1",
  "about": "“ARYL SUBSTITUTED PYRROLO-PYRIDINONES AND THERAPEUTIC USES THEREOF” (Bayer Aktiengesellschaft, priority 2020, published 2023)",
  "data": [
    {"target": "wild-type Epidermal Growth Factor Receptor (EGFR) (Homo sapiens (Human), UniProt P00533)", "sequence (P00533 669-1210)": "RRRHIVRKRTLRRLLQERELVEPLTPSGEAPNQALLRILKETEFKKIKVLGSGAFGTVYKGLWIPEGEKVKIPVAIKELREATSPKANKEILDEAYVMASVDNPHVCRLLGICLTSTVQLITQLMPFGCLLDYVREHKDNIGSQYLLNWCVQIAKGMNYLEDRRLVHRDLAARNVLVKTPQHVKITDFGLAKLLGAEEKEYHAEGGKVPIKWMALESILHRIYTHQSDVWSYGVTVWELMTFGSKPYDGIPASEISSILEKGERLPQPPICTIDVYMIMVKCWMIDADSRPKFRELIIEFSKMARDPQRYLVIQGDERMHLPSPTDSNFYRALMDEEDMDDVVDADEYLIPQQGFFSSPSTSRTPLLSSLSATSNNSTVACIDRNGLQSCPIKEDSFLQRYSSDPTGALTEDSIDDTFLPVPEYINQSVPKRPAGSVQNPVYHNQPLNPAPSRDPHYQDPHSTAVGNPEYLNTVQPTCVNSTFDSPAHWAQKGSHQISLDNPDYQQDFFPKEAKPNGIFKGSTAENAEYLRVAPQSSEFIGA", "assay": "WT-EGFR Kinase Assay (TR-FRET, 2 mM ATP)", "assay_type": "biochemical", "conditions": "EGFR Wildtyp 2 mM ATP IC50 [mol/l] (median), median or individual measurements", "source_text": "(§1) Inhibitory activity of compounds of the present invention against wild-type Epidermal Growth Factor Receptor (EGFR) was quantified employing the TR-FRET based EGFR assay as described in the following paragraphs.\n(§2) Recombinant fusion protein of N-terminal Glutathion-S-Transferase (GST) and a fragment of human EGFR (amino acids R669 to A1210), expressed in Sf9 insect cells and purified via affinity chromatography using Glutathion Sepharose as described above, was used as kinase. As substrate for the kinase reaction the biotinylated peptide biotin-Ahx-[…] (C-terminus in amide form) was used which can be purchased e.g. form the company Biosynthan GmbH (Berlin-Buch, Germany).\n(§3) For the assay 50 nl of a 100 fold concentrated solution of the test compound in DMSO was pipetted into either a black low volume 384 well microtiter plate or a black 1536 well microtiter plate (both Greiner Bio-One, Frickenhausen, Germany), 2 μL of a solution of EGFR in aqueous assay buffer [50 mM Hepes pH 7.0, 10 mM MgCl2, 1 mM dithiothreitol, 0.5 mM EGTA, 0.3 mM activated sodium ortho-vanadate, 0.005% (w/v) bovine serum albumin, 0.005% (v/v) Tween-20] were added and the mixture was incubated for 15 min at 22° C. to allow pre-binding of the test compounds to the enzyme before the start of the kinase reaction. […] The concentration of EGFR was adjusted depending of the activity of the enzyme lot and was chosen appropriate to have the assay in the linear range, typical concentration was […]. The reaction was stopped by the addition of 3 μL of a solution of HTRF detection reagents (83.3 nM streptavidine-XL665 [Cisbio Bioassays, Codolet, France] and 1.67 nM PT66-Tb-Cryptate, a terbium-cryptate labelled anti-phospho-tyrosine antibody from Cisbio Bioassays [instead of the PT66-Tb-cryptate PT66-Eu-Chelate from Perkin Elmer can also be used]) in an aqueous EDTA-solution (133.3 mM EDTA, 0.2% (w/v) bovine serum albumin in 50 mM HEPES pH 7.5).\n(§4) The resulting mixture was incubated 1 h at 22° C. to allow the binding of the biotinylated phosphorylated peptide to the streptavidine-XL665 and the PT66-Tb-Cryptate. Subsequently the amount of phosphorylated substrate was evaluated by measurement of the resonance energy transfer from the PT66-Tb-Cryptate to the streptavidine-XL665. Therefore, the fluorescence emissions at 620 nm and 665 nm after excitation at 337 nm were measured in a HTRF reader, e.g. a Pherastar (BMG Labtechnologies, Offenburg, Germany) or a Viewlux (Perkin-Elmer). The ratio of the emissions at 665 nm and at 622 nm was taken as the measure for the amount of phosphorylated substrate.", "units": {"IC50": "µM"}, "values": [
      {"smiles": "CC(C(=O)Nc1cc(-c2[nH]c3c(CC(F)(F)F)cn(C)c(=O)c3c2-c2ccccc2)ccn1)c1ccc(F)cc1", "note": "(single isomer, unassigned; (+)) [Example 015, (+)-2-(4-fluorophenyl)-N-{4-[5-methyl-4-oxo-3-phenyl-7-(2,2,2-trifluoroethyl)-4,5-dihydro-1H-pyrrolo[3,2-c]pyridin-2-yl]pyridin-2-yl}propanamide]", "IC50": 1.91},
      {"smiles": "CN1C(=O)c2c([nH]c(-c3ccnc(NC(=O)C(CC(F)F)c4ccc(F)cc4)c3)c2-c2ccccc2)CC12CCC2", "note": "(single isomer, unassigned; (+)) [Example 051, (+)-4,4-difluoro-2-(4-fluorophenyl)-N-[4-(5′-methyl-4′-oxo-3′-phenyl-1′,4′,5′,7′-tetrahydrospiro-[cyclobutane-1,6′-pyrrolo[3,2-c]pyridin]-2′-yl)pyridin-2-yl]butanamide]", "IC50": 3.2},
      {"smiles": "CC(C(=O)Nc1cc(-c2[nH]c3c(CC(F)(F)F)cn(C)c(=O)c3c2-c2ccccc2)ccn1)c1ccc(F)cc1", "note": "(single isomer, unassigned; (-)) [Example 016, (-)-2-(4-fluorophenyl)-N-{4-[5-methyl-4-oxo-3-phenyl-7-(2,2,2-trifluoroethyl)-4,5-dihydro-1H-pyrrolo[3,2-c]pyridin-2-yl]pyridin-2-yl}propanamide]", "IC50": "> 20"},
      {"smiles": "Cn1cc(CC(F)(F)F)c2[nH]c(-c3ccnc(NC(=O)C(CC(F)F)c4ccc(F)cc4)c3)c(-c3ccccc3)c2c1=O", "note": "(single isomer, unassigned; (-)) [Example 019, (-)-4,4-difluoro-2-(4-fluorophenyl)-N-{4-[5-methyl-4-oxo-3-phenyl-7-(2,2,2-trifluoroethyl)-4,5-dihydro-1H-pyrrolo[3,2-c]pyridin-2-yl]pyridin-2-yl}butanamide]", "IC50": "> 20"}
    ]},
    {"target": "wild-type Epidermal Growth Factor Receptor (EGFR) (Homo sapiens (Human), UniProt P00533)", "assay": "WT-EGFR Kinase Assay (TR-FRET, 2 mM ATP)", "assay_type": "biochemical", "conditions": "read-out: EGFR Wildtyp 2 mM ATP IC50 [mol/l] (median), median or individual measurements", "source_text": "as §1, §2, §3, §4", "units": {"IC50": "µM"}, "values": [
      {"smiles": "Cn1cc(CC(F)(F)F)c2[nH]c(-c3ccnc(NC(=O)C(CC(F)F)c4ccc(F)cc4)c3)c(-c3ccccc3)c2c1=O", "note": "(single isomer, unassigned; (+)) [Example 020, (+)-4,4-difluoro-2-(4-fluorophenyl)-N-{4-[5-methyl-4-oxo-3-phenyl-7-(2,2,2-trifluoroethyl)-4,5-dihydro-1H-pyrrolo[3,2-c]pyridin-2-yl]pyridin-2-yl}butanamide]", "IC50": "> 20"},
      {"smiles": "CC(C(=O)Nc1cc(-c2[nH]c3c(CC(F)(F)F)cn(C)c(=O)c3c2-c2ccc(F)cc2)ccn1)c1ccc(F)cc1", "note": "(single isomer, unassigned; (+)) [Example 024, (+)-2-(4-fluorophenyl)-N-{4-[3-(4-fluorophenyl)-5-methyl-4-oxo-7-(2,2,2-trifluoroethyl)-4,5-dihydro-1H-pyrrolo[3,2-c]pyridin-2-yl]pyridin-2-yl}propanamide]", "IC50": "> 20"},
      {"smiles": "Cc1cn(C)c(=O)c2c(-c3ccc(F)cc3)c(-c3ccnc(NC(=O)C(C)c4ccc(F)cc4)c3)[nH]c12", "note": "(single isomer, unassigned; (+)) [Example 032, (+)-2-(4-fluorophenyl)-N-{4-[3-(4-fluorophenyl)-5,7-dimethyl-4-oxo-4,5-dihydro-1H-pyrrolo[3,2-c]pyridin-2-yl]pyridin-2-yl}propanamide]", "IC50": "> 20"},
      {"smiles": "Cc1cn(C)c(=O)c2c(-c3ccc(F)cc3)c(-c3ccnc(NC(=O)C(CC(F)F)c4ccc(F)cc4)c3)[nH]c12", "note": "(single isomer, unassigned; (+)) [Example 036, (+)-4,4-difluoro-2-(4-fluorophenyl)-N-{4-[3-(4-fluorophenyl)-5,7-dimethyl-4-oxo-4,5-dihydro-1H-pyrrolo[3,2-c]pyridin-2-yl]pyridin-2-yl}butanamide]", "IC50": "> 20"},
      {"smiles": "CC(C(=O)Nc1cc(-c2[nH]c3c(c2-c2ccccc2)C(=O)N(C)C2(CCC2)C3)ccn1)c1ccc(F)cc1", "note": "(single isomer, unassigned; (+)) [Example 054, (+)-2-(4-fluorophenyl)-N-[4-(5′-methyl-4′-oxo-3′-phenyl-1′,4′,5′,7′-tetrahydrospiro[cyclobutane-1,6′-pyrrolo[3,2-c]pyridin]-2′-yl)pyridin-2-yl]propanamide]", "IC50": "> 20"}
    ]}
  ]
}
